{"source": "patent US9642845B2", "about": "“Method for alleviating side effects of retinoic acid therapy and/or improving efficacy without interfering with efficacy” (University of Kentucky Research Foundation, priority 2007, dated 2017)", "key": {"[1]": {"system": "photodamaged skin", "experiment": "Clinical grading of efficacy (dyschromia, fine lines, wrinkles, tactile roughness, temple laxity)", "type": "in vivo, human", "conditions": "for grading of temple laxity vs placebo/placebo+RA: 12 weeks", "description": "(§1) A clinical study was conducted to examined the combined use of retinoic acid therapy with myristyl nicotinate (MN), a lipophilic derivative of niacin that enhances skin barrier function, in subjects with mild to moderate facial photodamage.\n(§2) The subjects were randomly assigned to one of three groups of 20 subjects each. One month prior to the initiation of retinoic acid therapy, one of the groups (group 3) began to apply to the entire face, both night and morning, a formulation containing 5% myristyl nicotinate. Groups 1 and 2 applied, in the same manner, a placebo formulation in which myristyl myristate replaced myristyl nicotinate. Upon initiation of retinoic acid therapy (baseline), group 1 (placebo/placebo+RA) continued to use the placebo formulation as above, group 2 (placebo/MN+RA) initiated use of the 5% myristyl nicotinate formulation and group 3 (MN/MN+RA) continued to use the 5% myristyl nicotinate formulation. Retinoic acid therapy involved a 0.025% concentration of the drug applied at night, immediately following application of the placebo or myristyl nicotinate containing formulations. This strength of retinoic acid was chosen for this study as the subjects had mild to moderate photodamage.\n(§3) In order to assess both the tolerability and efficacy of retinoic acid therapy, subjects also were clinically graded on the right and/or left side of the face for efficacy/performance parameters and irritation/safety parameters at baseline, and weeks 2, 4, 8, and 12.\nClinical grading involved evaluation of dyschromia, fine lines, shallow wrinkles, tactile roughness, and temple laxity as a function of treatment time (at weeks 2, 4, 8, and 12)."}, "[2]": {"system": "photodamaged skin", "experiment": "Stratum corneum thickness of periorbital punch biopsies, clinical study", "type": "in vivo, human", "description": "as §1\nAll subjects selected for the study were female, between the ages of 30 and 60, with a score of I to IV on the Fitzpatrick Skin Classification, mild to moderate photodamaged skin as defined by a modified Glogau Classification of I to II, and with presence of dyschromia on the face as determined by a woods light visual scan.\nThe subjects were randomly assigned to one of three groups of 20 subjects each. One month prior to the initiation of retinoic acid therapy, one of the groups (group 3) began to apply to the entire face, both night and morning, a formulation containing 5% myristyl nicotinate. Groups 1 and 2 applied, in the same manner, a placebo formulation in which myristyl myristate replaced myristyl nicotinate. […]\nAccordingly, periorbital biopsy samples obtained from study subjects were evaluated for stratum corneum thickness. A board certified dermatologist collected a 2-mm punch biopsy from the right or left side of the face as determined by a randomization design of 7 randomly selected subjects from each group at baseline and after 12 weeks of treatment. […]\nHistological images were taken of the H&E stained cross sections with an Olympus inverted stage microscope using a 10× by 0.45 Apochromat objective and a Nikon digital CCD camera. […] Suprapapillary epidermal thickness (as measured from the top of the dermal papilla to the top of the granular layer) and stratum corneum thickness (as measured from the top of the granular layer to the top of the stratum corneum) were measured. For each specimen, five different sites were measured and the average was calculated."}, "[3]": {"system": "photodamaged skin", "conditions": "5% myristyl nicotinate for 3 months, previous studies; cited from earlier work"}, "[4]": {"system": "photodamaged skin", "experiment": "Suprapapillary epidermal thickness of periorbital punch biopsies", "type": "in vivo, human", "conditions": "for increase in epidermal thickness: 12 weeks", "description": "as §1, §2\nAccordingly, periorbital biopsy samples obtained from study subjects were evaluated for stratum corneum thickness. A board certified dermatologist collected a 2-mm punch biopsy from the right or left side of the face as determined by a randomization design of 7 randomly selected subjects from each group at baseline and after 12 weeks of treatment. The punch biopsies were formalin-fixed, embedded in paraffin, cut into 5 μm cross-sections, mounted on slides, and stained with hematoxylin-eosin (H&E).\nHistological images were taken of the H&E stained cross sections with an Olympus inverted stage microscope using a 10× by 0.45 Apochromat objective and a Nikon digital CCD camera. ImageJ image analysis software (NIH) was used to examine the images and perform measurements. Suprapapillary epidermal thickness (as measured from the top of the dermal papilla to the top of the granular layer) and stratum corneum thickness (as measured from the top of the granular layer to the top of the stratum corneum) were measured. For each specimen, five different sites were measured and the average was calculated.\nSince long term retinoid therapy is associated with an increase in epidermal thickness, changes in epidermal thickness in each of the groups over the 12-week course of the retinoic acid therapy were also assessed. The mean values for the placebo/placebo+RA, placebo/MN+RA, and MN/MN+RA groups at the baseline were 37.9, 38.8, and 39.3 μm, respectively. […]"}, "[5]": {"system": "photodamaged skin", "experiment": "Clinical grading of tolerability (irritation/safety parameters)", "type": "in vivo, human", "description": "as §1, §2, §3\nThe most severe parameters of tolerability such as scaling/peeling and degree of erythema were graded on 3-point clinical scale at weeks 2, 4, 8, and 12, and mean values were determined. The frequency of less severe parameters of tolerability typical of retinoic acid therapy (including tightness/dryness, stinging, burning, and tingling) was also evaluated."}, "[6]": {"system": "filaggrin", "experiment": "Filaggrin expression in study subjects", "type": "in vivo, human", "excerpt": "(§4) To investigate this, the levels of expression of both caspase 14 and filaggrin were investigated in the groups of subjects referred to supra, (i.e., subjects who received placebo alone for one month, then placebo plus retinoic acid, and those who received placebo only for one month and then myristyl nicotinate and retinoic acid during the treatment phase."}, "[7]": {"system": "caspase 14", "experiment": "Caspase 14 expression in study subjects", "type": "in vivo, human", "excerpt": "as §4"}, "[8]": {"system": "photodamaged skin", "experiment": "Rates of transepidermal water loss (TEWL), right cheek, Dermalab", "type": "in vivo, human", "conditions": "for change from baseline in mean rates of TEWL: 12 weeks", "description": "as §1, §2\nDetermination of rates of TEWL provides a non-invasive assessment of relative skin barrier function. […] For the TEWL measurements, the instruments required a specified temperature and humidity range for optimal function, thus subjects were required to equilibrate to ambient conditions for at least 20 min prior to measurements. Temperature was maintained between 66 and 72° F. and relative humidity maintained between 15 and 55%. A computer-linked Dermalab instrument was used to measure TEWL at two points above the skin surface on the right cheeks of study subjects and the rate of water loss was calculated. Each TEWL measurement was averaged over a one-min measurement period."}, "[9]": {"conditions": "MN/MN+RA group (prior and concurrent MN)"}}}
{"smiles": "CCCCCCCCCCCCCCOC(=O)c1cccnc1", "note": "[myristyl nicotinate]", "values": [{"measurement": "grading of temple laxity vs placebo/placebo+RA", "setting": "[1]; MN/MN+RA group, p=0.02", "value": "statistically significant greater improvement"}, {"measurement": "tactile roughness scores", "setting": "[1]; MN/MN+RA group, weeks 4 to 12", "value": "consistently showed greater improvement"}, {"measurement": "grading of temple laxity vs placebo/placebo+RA", "setting": "[1]; placebo/MN+RA group, not significant at p<0.05", "value": "trend for greater improvement"}, {"measurement": "higher mean stratum corneum thickness compared to the mean values of the other groups", "setting": "[2]; MN/MN+RA group at baseline, after one month of 5% myristyl nicotinate, not significant at p<0.05", "value": "approximately 11%"}, {"measurement": "change in stratum corneum thickness", "setting": "[2]; concurrent use of 5% myristyl nicotinate and 0.025% retinoic acid, 12 weeks", "value": "did not result in a decrease in stratum corneum thickness"}, {"measurement": "increase in stratum corneum thickness", "setting": "[3]", "value": "more than 50%"}, {"measurement": "mean epidermal thickness", "setting": "[4]; MN/MN+RA group at baseline, after one month of 5% myristyl nicotinate", "value": 39.3, "unit": "μm"}, {"measurement": "increase in epidermal thickness", "setting": "[4]; myristyl nicotinate concurrent with retinoic acid", "value": "approximately 3%"}, {"measurement": "increase in epidermal thickness", "setting": "[4]; myristyl nicotinate prior/concurrent with retinoic acid, p=0.0007 vs placebo/placebo+RA", "value": "approximately 10%"}, {"measurement": "incidence of tingling", "setting": "[5]; [9]", "value": "zero"}, {"measurement": "frequency of tightness/dryness, stinging, and burning", "setting": "[5]; concurrent use of myristyl nicotinate with retinoic acid therapy", "value": "decreased"}, {"measurement": "grading of erythema vs placebo", "setting": "[5]; myristyl nicotinate treated subjects on 0.025% retinoic acid, difference not statistically significant", "value": "consistently slightly higher"}, {"measurement": "frequency of tightness/dryness, stinging, and burning", "setting": "[5]; prior and concurrent myristyl nicotinate use with retinoic acid therapy", "value": "further reduced"}, {"measurement": "average increase in filaggrin expression", "setting": "[6]; placebo, myristyl nicotinate and retinoic acid", "value": 13, "unit": "%"}, {"measurement": "increase in caspase 14 expression", "setting": "[7]; placebo, retinoic acid and myristyl nicotinate for 3 months", "value": 24, "unit": "%"}, {"measurement": "change from baseline in mean rates of TEWL", "setting": "[8]; [9]", "value": "not statistically significant"}, {"measurement": "change from baseline in mean rates of TEWL", "setting": "[8]; placebo/MN+RA group (concurrent MN)", "value": "not statistically significant"}]}
{"smiles": "CC1=C(/C=C/C(C)=C/C=C/C(C)=C/C(=O)O)C(C)(C)CCC1", "note": "[retinoic acid, All-trans-retinoic acid]", "values": [{"measurement": "reduction in stratum corneum thickness", "setting": "[2]; placebo/placebo+RA group, 12 weeks of 0.025% retinoic acid therapy, p=0.006 vs. baseline", "value": "approximately 24%"}, {"measurement": "decrease in mean epidermal thickness", "setting": "[4]; retinoic acid and placebo cream, 12 week study", "value": "approximately 5%"}, {"measurement": "frequency of tingling", "setting": "[5]; retinoic acid therapy 0.025%, frequency reported in the study", "value": 2, "unit": "%"}, {"measurement": "change in filaggrin expression", "setting": "[6]; subjects not treated with myristyl nicotinate (placebo plus retinoic acid)", "value": "no change"}, {"measurement": "average increase in caspase 14 expression", "setting": "[7]; placebo plus retinoic acid for 3 months", "value": 5, "unit": "%"}, {"measurement": "increase in rates of TEWL", "setting": "[8]; placebo/placebo+RA group, 12 week period, p<0.0001", "value": "approximately 45%"}]}
